Reference: PubChem BioAssay AID849 (SRMLSC, 2007)
Calls of active or inactive are those of the source. How the calls were made is not given here.

Tested on: Saccharomyces cerevisiae lifespan shortening, growth inhibition
Experiment: Saccharomyces cerevisiae growth inhibition potency – dose response (AID 849);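 further: yeast growth read as optical density after two days at 30 degrees C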

Row | SMILES | IC50
1 | CN1C(=O)c2cccc3c(Cl)ccc(c23)C1=O | > 100 µM (inactive)
2 | Oc1ccc(Cl)cc1Cc1cc(Cl)ccc1O | 21 µM
3 | O=C(CCSc1nnc(-c2ccncc2)o1)Nc1ccc(Cl)cc1 | 37.7 µM
4 | N=c1n(CCN2CCOCC2)c2ccccc2n1CC(=O)c1ccc(Cl)c(Cl)c1 | > 100 µM (inactive)
5 | Cn1c(SCC(=O)Nc2ccccc2)nc(O)cc1=O | 50.1 µM
6 | CCCn1c(C(C)NC(C)=O)nc2ccccc21 (stereo not given) | > 100 µM (inactive)
7 | Clc1ccc(CCNc2nc3ccccc3s2)cc1 | > 100 µM (inactive)
8 | O=C(CSC1=NCCS1)N1CCN(c2ccc(Cl)cc2)CC1 | > 100 µM (inactive)
9 | CCSc1nnc(NC(=O)c2ccccn2)s1 | 9.84 µM
10 | CC1(CCc2ccccc2)NC(=S)N(c2ccc(Cl)cc2)N1 (stereo not given) | 42 µM
11 | CCn1c(=O)c(C(=O)Nn2c(C)nc3ccccc3c2=O)c(O)c2ccccc21 | 15.5 µM
12 | Cc1ccc(CNC(=O)CS(=O)Cc2nc(-c3cccs3)oc2C)cc1 (stereo not given) | > 100 µM (inactive)
13 | Cc1c(C=O)c2ccccn2c1C(=O)c1ccncc1 | > 100 µM (inactive)
14 | OC(CN1CCN(c2ccccn2)CC1)Cn1c2ccc(Cl)cc2c2cc(Cl)ccc21 (stereo not given) | 47.5 µM
15 | Cc1cccc(-c2nnc3sc(-c4ccccc4C)nn23)c1 | > 100 µM (inactive)
16 | CC1(CCc2ccccc2)NC(=S)N(c2ccccc2)N1 (stereo not given) | 14.1 µM
17 | Cc1ccc(-c2nn3c(C)nnc3s2)cc1NC(=O)c1ccc(OC(C)C)cc1 | > 100 µM (inactive)
18 | Cc1ccc2[nH]c3c(c2c1)CCc1cn[nH]c1-3 | 15.6 µM
19 | CCc1cc2c(=O)[nH]c(-c3ccccn3)nc2s1 | 19.2 µM
20 | Oc1c(CN2CCCCC2)cc(Br)c2cccnc12 | 11.2 µM
21 | COc1ccc(C(=O)C(C)(C)NO)cc1 | 33.7 µM
22 | COc1cc2c(cc1OC)CN(C(=O)CSc1nnc3scc(-c4ccccc4)n13)CC2 | > 100 µM (inactive)
23 | CC(C)N=c1scc(-c2ccco2)n1/N=C/c1ccc(O)c(O)c1 | 49.1 µM
24 | Cc1nc(Nc2ccc(Cl)c(Cl)c2)sc1C(=O)Nc1ccccc1 | > 100 µM (inactive)

Row | SMILES | IC50
25 | Fc1ccc(N/N=C2/CC(c3ccccc3)Oc3ccccc32)c(F)c1 (stereo not given) | 27.7 µM
26 | Cc1cc(=O)[nH]c(SCc2nc3ccccc3s2)n1 | > 100 µM (inactive)
27 | CCc1ccc2c(c1)C1(NN=C(c3ccccc3)S1)C(=O)N2 (stereo not given) | 24.6 µM
28 | CCOc1ccc(/C=C/[N+](=O)[O-])c2ccccc12 | > 100 µM (inactive)
29 | O=S(=O)(Nc1ccc(-c2nc3ccccc3o2)cc1)c1ccccc1 | > 100 µM (inactive)
30 | CCCCCCCCCCCCCCCC[n+]1ccc(C(N)=O)cc1 | 1.1 µM
31 | CC1=CC(=O)c2ccccc2C1=O | 18.5 µM
32 | CCOc1ccc(-c2[nH]ncc2Oc2cccc(OC)c2)c(O)c1 | 22.8 µM
33 | COc1ccc(/C=C/C(=O)c2cc(Br)ccc(=O)c2O)cc1 | 12.6 µM
34 | Cc1ccc(Oc2nc(CN3CCOCC3)nc3sc4c(c23)CCC(C)C4)cc1C (stereo not given) | 26.1 µM
35 | Cc1oc(-c2ccc3c(c2)OCCO3)cc1C(=O)O | 16.8 µM
36 | O=Cc1c(Sc2ccccc2)nc2ccccn2c1=O | 29 µM
37 | Cc1cccc(CSc2cccc3cccnc23)c1 | 33.1 µM
38 | Clc1ccc2nnnc(-c3ccccc3)c2c1 | 38.8 µM
39 | O=C1CCN2C=Nc3cccc4ccc1c2c34 | 32.9 µM
40 | Oc1c(C(Nc2nc3ccccc3s2)c2ccco2)ccc2cccnc12 (stereo not given) | > 100 µM (inactive)
41 | c1ccc(-n2c(-c3ccco3)nnc2-c2ccco2)cc1 | > 100 µM (inactive)
42 | O=S(=O)(NC1CC2CCC1C2)c1ccc(Br)s1 (stereo not given) | 2.07 µM
43 | Nc1ccc(C(=O)OCC(=O)Nc2ccc3c(c2)OCO3)cc1[N+](=O)[O-] | > 100 µM (inactive)
44 | CC(C)(Oc1ccc(Cl)cc1)C(=O)NC1=NN(c2ccccc2)C(=O)C1 | 18.2 µM
45 | NC(N)=N/N=C/c1ccc(OCc2ccc(Cl)cc2)cc1 | 48.4 µM
46 | CC1=C(C)CC2C(=O)N(c3cccc4ccccc34)C(=O)C2C1 (stereo not given) | > 100 µM (inactive)
47 | CCCS(=O)(=O)c1nnnn1-c1cccc(OC)c1 | 3.4 µM
48 | O=[N+]([O-])c1ccc(N/N=C2/CCCCC2c2ccccn2)cc1 (stereo not given) | 5.86 µM

Row | SMILES | IC50
49 | Cc1nn(-c2cccc(C(F)(F)F)c2)c(Cl)c1/C=N/Nc1cccc(C(=O)O)c1 | 39.8 µM
50 | Cc1oc(-c2cccs2)nc1CS(=O)CC(=O)NC1CCCCCC1 (stereo not given) | > 100 µM (inactive)
51 | CCOC(=O)C1=Nc2ccccc2C1=[N+]=[N-] | 5.58 µM
52 | O=C(Nc1cccc(C(F)(F)F)c1)C(Sc1cccc[n+]1[O-])c1ccccc1 (stereo not given) | 21.5 µM
53 | C/C(=N\Nc1ccc([N+](=O)[O-])cc1)c1ccc(N)cc1 | 40.2 µM
54 | C=C(C)COc1ccc(-c2[nH]ncc2-c2ccccc2OC)c(O)c1 | > 100 µM (inactive)
55 | CC(C)CC(=O)/C(=C\c1ccc(Cl)cc1Cl)n1cncn1 | 15.8 µM
56 | C/C(=N\NC(=O)c1ccc(CSc2cccc3cccnc23)cc1)C1CCCCC1 | 33.8 µM
57 | CCC(=O)NC(c1ccc(C)cc1)c1cc([N+](=O)[O-])c2cccnc2c1O (stereo not given) | 25.3 µM
58 | O=C(COc1ccccc1)N1CCN=C1SCc1cccnc1 | > 100 µM (inactive)
59 | CNC(=O)Oc1cccc(-c2cn3cc(OC(=O)NC)ccc3n2)c1 | 10.3 µM
60 | CC1CCN(c2nc(/C=C/c3ccccc3)nc3ccccc23)CC1 | 24.7 µM
61 | CC(C)(C)c1ccc(-c2nc(-c3ccncc3)no2)cc1 | 23.1 µM
62 | N#C/C(=C/c1cn(-c2ccccc2)nc1-c1cccc(OCc2ccc(F)cc2)c1)C(=O)NCCCn1ccnc1 | > 100 µM (inactive)
63 | Cc1conc1NC(c1cccs1)c1ccc2cccnc2c1O (stereo not given) | 40.8 µM
64 | C=C(C)COc1ccc(-c2[nH]ncc2-c2ccccc2)c(O)c1 | 20.4 µM
65 | O=C1NCCCC1C(=O)N/N=C/c1cccc(O)c1 (stereo not given) | > 100 µM (inactive)
66 | CCOC(=O)/C(=N\Nc1cccc(C(F)(F)F)c1)N(CCOC)CCOC | > 100 µM (inactive)
67 | Oc1cc(-c2ccccc2)c2ccccc2c1 | 26 µM
68 | Oc1ccc(CN2CCCCC2)c2cccnc12 | 46.4 µM
69 | CCCCOC(=O)n1c(=S)oc2cc(Cl)ccc21 | 16.5 µM
70 | CC1=NNC(=O)/C1=C\c1cn(-c2ccccc2)nc1-c1cccs1 | 36.1 µM
71 | Cc1c(N=Cc2cc(Br)cc(Br)c2O)cccc1C(=O)O | 23.7 µM
72 | Cc1cc(=O)[nH]c(-n2nc(C)cc2C)n1 | 14.3 µM

Row | SMILES | IC50
73 | O=C(c1cc(-c2ccccc2O)on1)N1CCc2ccccc2C1 | > 100 µM (inactive)
74 | Cc1ccc(-c2[nH]nc(N)c2N=Nc2ccccc2C)cc1 | > 100 µM (inactive)
75 | Cc1nnc(C)n1/N=C/c1cc(Br)cc(Br)c1O | 9.23 µM
76 | Cn1c(=O)c(C(=O)Nc2ncccn2)c(O)c2ccccc21 | 33 µM
77 | O=c1[nH][nH]cc1C=Nc1ccccc1O | > 100 µM (inactive)
78 | CN1CCc2cc3c(c4c2[C@H]1[C@H](O)c1ccccc1-4)OCO3 | 35.4 µM
79 | Cc1nc2ccccc2c2nc3ccccc3n12 | 5.3 µM
80 | Oc1ccc(COCc2ccccc2)c2cccnc12 | 6.43 µM
81 | Cc1c2cc(O)c(=O)cc-2oc2cc(O)c(O)cc12 | 28.1 µM
82 | c1cncc(-c2nnc(-c3cccnc3)nn2)c1 | 25.9 µM
83 | O=C(O)Cc1cc(I)c(Oc2ccc(O)c(I)c2)c(I)c1 | 23.9 µM
84 | O=C(N/N=C/c1sc2ccccc2c1O)c1cccc2ccccc12 | 21 µM
85 | O=C(O)CCn1cc(/C=C/C(=O)c2ccc(Cl)cc2)c(-c2ccc(Br)cc2)n1 | > 100 µM (inactive)
86 | O=C1C(=O)c2ccccc2-c2ccccc21 | 7.79 µM
87 | COC(=O)Cn1c2ccccc2c2nc(C)sc21 | > 100 µM (inactive)
88 | COc1ccc(-c2n[nH]c(C(F)(F)F)c2-c2cc3ccccc3o2)c(O)c1 | 26.1 µM
89 | CN(C)CCNC=C(C(=O)Nc1ccc(Cl)cc1Cl)C(=O)Nc1ccc(Cl)cc1Cl | 23.9 µM
90 | Cc1cc(C)c2c(=O)n(CC(=O)N3CCC(Cc4ccccc4)CC3)sc2n1 | > 100 µM (inactive)
91 | O=C1OCC(CO)(CO)N=C1NNc1ccccc1Cl | 6.45 µM
92 | CCOC(=O)c1c(N)sc2c(OC)c(Br)ccc12 | > 100 µM (inactive)
93 | Cc1ccc2c(c1)-c1nc3ccccc3cc1C2=NC1CCCCC1 | 35.6 µM
94 | O=C(Nc1nc(-c2ccccn2)cs1)c1ccc(Cl)s1 | 2.85 µM
95 | CCCc1cc(C(=O)NC2CCCCC2)no1 | > 100 µM (inactive)
96 | CN1CCN(C2=Cc3ccc(Cl)cc3Sc3ccc(F)cc32)CC1 | 30 µM

Row | SMILES | IC50
97 | CCCCCCc1ccc(-c2ncc(N)cn2)cc1 | 25.9 µM
98 | O=C1CN(CC(=O)N2CCCCC2)c2ccccc2O1 | 43.3 µM
99 | CCc1cccc(C)c1NC(=S)NCCc1c(C)[nH]c2ccc(C)cc12 | 41 µM
100 | C=CCNC1=C(Cl)C(=O)c2ccccc2C1=O | > 100 µM (inactive)
101 | O=C(CC(=O)c1cc(Cl)ccc1O)c1ccccc1 | > 100 µM (inactive)
102 | Clc1ccccc1N/N=C/c1ccc2c(c1)OCO2 | 32.5 µM
103 | Oc1ccccc1NCC(O)Cn1ccc2ccccc21 (stereo not given) | > 100 µM (inactive)
104 | COc1ccc(OC)c(-c2c3cc(O)c(=O)cc-3oc3cc(O)c(O)cc23)c1 | 30.1 µM
105 | Cc1ccc(/C(N)=N/OC(=O)c2ccc(Cl)cc2Cl)cc1 | 18.3 µM
106 | CCOC(=O)/C(=N\Nc1ccccc1Cl)N1CCN(Cc2ccccc2)CC1 | 17.9 µM
107 | CN(C)c1ccc(/C=C/c2ccc3ccccc3[n+]2C)cc1 | 26.4 µM
108 | O=C1c2ccccc2C(=O)C1c1ccc2ccccc2n1 | > 100 µM (inactive)
109 | Nc1c(Cl)ncnc1N/N=C/c1ccccn1 | 11.2 µM
110 | c1ccc(N(c2ccccc2)c2nc(-n3ccnc3)nc(-n3ccnc3)n2)cc1 | > 100 µM (inactive)
111 | Cc1sc2ncnc(N/N=C/c3ccccc3O)c2c1C | 42.2 µM
112 | O=C(NNC(=S)NC(=O)C12CC3CC(CC(C3)C1)C2)c1ccncc1 | 19.6 µM
113 | COc1ccc(CN2CN(C(C)C)CSC2=S)cc1 | 35.3 µM
114 | Cc1cc(-c2ccco2)c(C#N)c2nc3ccccc3n12 | 5.77 µM
115 | Cc1cc(N/N=C/c2ccc(Cl)cc2Cl)nc(NCc2ccccc2)n1 | 28.9 µM
116 | Oc1c(Br)cc(Br)cc1C=Nc1ccc2c(c1)OCO2 | > 100 µM (inactive)
117 | COc1ccc(C(=O)/C=C/N2CCCCC2)cc1OC | 21.4 µM
118 | COc1ccc2c(C)nc(Nc3nc(C)c(C)c(=O)[nH]3)nc2c1 | 15 µM
119 | Cc1nn2c(-c3ccncc3)nnc2c2ccccc12 | 6.35 µM
120 | Cc1cc(Cl)ccc1N=c1ssnc1Cl | > 100 µM (inactive)
